In brackets after ≈: the same amount, converted by molar mass. Where two headings read alike, the source gives them in different places.
Key:
[1] = tested on: B. subtilis (ATCC 6633); assay: Disk diffusion antimicrobial test, B. subtilis; format: cell-based, Bacillus subtilis; settings: Bacillus subtilis, ATCC6633, Gram-positive, 20 mg per disc (title), concentration 20 µg (footnote)
Method: (§1) The newly synthesized compounds were chosen to be evaluated in vitro towards a variety of pathogenic microorganisms; Gram-positive bacteria: S. aureus (ATCC 6538) and B. subtilis (ATCC 6633); Gram-negative bacteria: P. areuginosa (ATCC 27853) and E. coli (DSMZ 1058); yeast: C. albicans (ATCC 10231) and S. cerevisiae (ATCC 9080) and fungi: A. niger (NRRL A-326) using the disk diffusion method at a single dose of 20 µl. The results are shown in Table 1 as the growth inhibition zone (mm).
(§2) The antimicrobial activity of target compounds were evaluated to be in vitro against a variety of pathogenic microorganisms, namely Staphylococcus aureus (ATCC 6538), Bacillus subtilis (ATCC 6633) (Gram-positive bacteria), Pseudomonas areuginosa (ATCC 27853), Escherichia coli (DSMZ 1058) (Gram-negative bacteria), Candida albicans (ATCC 10231), Saccharomyces cerevisiae (ATCC 9080) (Yeast) and Aspergillus niger (NRRL A-326) (Fungi) using the disk diffusion method at a single dose of 20 µg. The microorganisms were served and obtained from the Microbial Biotechnology Department, National Research Center, Giza, Egypt. Amphotericin, amoxicillin and ciprofloxacin were used as reference drugs (Oxoid™ Disks). The tested compounds 11a–c, 12a–c, 13a–i, 14a–i and 15a,b were dissolved in dimethylsulphoxide (DMSO) at a concentration of 1 mg/mL. Aliquots of 20 μl were soaked on filter paper discs (6 mm) and dried at room temperature under sterilized conditions. The paper discs were placed on inoculated agar plats and then incubated for 24 h at 37 °C for bacterial strains and after 48–72 h incubation at 30 °C for fungi. Both bacterial and yeast strains were grown on nutrient agar medium (g/l): beef extract, 3; peptone, 10 and agar, 20 at pH of 7.2. The fungal strain was grown on Czapek-Dox medium (g/l): sucrose, 30; NaNO3, 3; MgSO4.7H2O, 0.5l; KCl, 0.5; FeSO4, 0.01; K2HPO4, 1 and agar, 20 at pH of 6.0.

[2] = tested on: S. aureus (ATCC 6538); assay: Disk diffusion antimicrobial test, S. aureus; format: cell-based, Staphylococcus aureus; settings: Staphylococcus aureus, ATCC6538, Gram-positive, 20 mg per disc (title), concentration 20 µg (footnote)
Method: as §1, §2

[3] = tested on: normal skin fibroblast cells (BJ-1); assay: MTT cytotoxicity assay, normal skin fibroblast BJ-1; format: cell-based; settings: Homo sapiens, 48 h, read-out: Growth Inhibition (%) BJ-1
[4] = DPPH free radical scavenging assay; format: biochemical; settings: concentration of 20µg/l, mean ± SD of three experiments
Method: Antioxidant activity of the newly synthesized 13a–i, 14a–i, 11a–c and 12a–c were assessed in terms of hydrogen-donating or radical-scavenging ability via the stable free radical 1,1-diphenyl-2-picrylhydrazyl (DPPH) using ascorbic acid as a reference at a concentration of […].
The free radical scavenging activity (RSA) was assessed spectrophotometically at 517 nm via decoloration of the solution of the DPPH (1,1-diphenyl-2-picrylhydrazyl) radical according to Brand-Williams et al. 1995 [32]. DPPH solution was prepared by dissolving of 20 mg of DPPH in one liter of dimethylsulphoxide (DMSO). A freshly prepared DPPH solution was used for the assay. Each of the tested compounds 11a–c, 12a–c, 13a–i, 14a–i and 15a,b were dissolved in DMSO (1mg/mL). A volume of […] of a DMSO stock solution of the test compounds was added to 2 mL of freshly prepared DPPH in DMSO solution. The mixtures were shaken in a vortex (2500 rpm) for 1 min and then left to stand for 15, 30, 45 and 60 min in the dark room. The absorbance was measured at 517 nm against blank using UV visible spectrophotometer 2401 PC (Shimadzu, Kyoto, Japan). Lower absorbance of the reaction mixture indicated higher free radical scavenging activity was analyzed from the graph plots of the inhibition percentage against the compound concentration. The experiment was carried out in triplicate and averaged. The scavenging activity was calculated according to the following formula:Scavenging ability (%) = (A517 of control - A517of sample / A 517 of control) ×100(1)

[5] = tested on: S. cerevisiae (ATCC 9080); assay: Disk diffusion antimicrobial test, S. cerevisiae; format: cell-based; settings: Saccharomyces cerevisiae, ATCC9080, yeast, 20 mg per disc (title), concentration 20 µg (footnote)
Method: as §1, §2

[6] = tested on: HCT-116 (human colon cancer); assay: MTT cytotoxicity assay, HCT-116; format: cell-based; settings: Homo sapiens; for inhibition at 100 µg/mL: HCT-116, 100 µg/ml, 48 h, read-out: Growth Inhibition (%) HCT-116; for IC50: HCT-116, 48 h, 48 h post-treatment
[7] = tested on: HepG-2 (human liver cancer); assay: MTT cytotoxicity assay, HepG-2; format: cell-based; settings: for inhibition at 100 µg/mL: HepG2, 100 µg/ml, 48 h, read-out: Growth Inhibition (%) HepG-2; for IC50: HepG2, 48 h post-treatment
[8] = tested on: MCF-7 (human breast cancer); assay: MTT cytotoxicity assay, MCF-7; format: cell-based; settings: for inhibition at 100 µg/mL: MCF7, 100 µg/ml, 48 h, read-out: Growth Inhibition (%) MCF-7; for IC50: MCF7, 48 h post-treatment
[9] = tested on: C. albicans (ATCC 10231); assay: Disk diffusion antimicrobial test, C. albicans; format: cell-based, Candida albicans; settings: Candida albicans, ATCC10231, disk diffusion; yeast; 20 mg per disc (title), concentration 20 µg (footnote)
Method: as §1, §2

[10] = tested on: P. aeruginosa (ATCC 27853); assay: Disk diffusion antimicrobial test, P. aeruginosa; format: cell-based, Pseudomonas areuginosa; settings: Pseudomonas aeruginosa, ATCC27853, Gram-negative, 20 mg per disc (title), concentration 20 µg (footnote)
Method: as §1, §2

[11] = 15 min, read-out: Scavenging Activity (%) on DPPH radicals at 15 min
[12] = 30 min, read-out: Scavenging Activity (%) on DPPH radicals at 30 min
[13] = 45 min, read-out: Scavenging Activity (%) on DPPH radicals at 45 min
[14] = 60 min, read-out: Scavenging Activity (%) on DPPH radicals at 60 min

Row | SMILES | melting point | zone of inhibition at 20 µg/disc [1] | zone of inhibition at 20 µg/disc [2] | inhibition at 100 µg/mL [3] | inhibition [4, 11] | inhibition [4, 12] | inhibition [4, 13] | inhibition [4, 14] | zone of inhibition at 20 µg/disc [5] | inhibition at 100 µg/mL [6] | IC50 [6] | inhibition at 100 µg/mL [7] | IC50 [7] | inhibition at 100 µg/mL [8] | IC50 [8] | zone of inhibition at 20 µg/disc [9] | zone of inhibition at 20 µg/disc [10]
1 | CC1(C)S[C@@H]2[C@H](NC(=O)[C@H](N)c3ccc(O)cc3)C(=O)N2[C@H]1C(=O)O [Amoxicillin, amoxicillin, reference compound] | – | 28.4 mm | 25.6 mm | – | – | – | – | – | – | – | – | – | – | – | – | – | –
2 | O=C1Nc2ccccc2C12CC(c1c[nH]c3ccccc13)=NN2 (stereo not drawn) [Compound 13a, 5’-(1H-Indol-3-yl)-2’,4’-dihydrospiro(indoline-3,3’-pyrazol)-2-one] | 318 to 320 °C | – | – | 11.6% | 41.1 ± 1.25% | 45.8 ± 1.36% | 56.5 ± 1.99% | 64.1 ± 2.01% | 20 mm | 96.9% | 31.3 µg/mL (≈ 104 µM) | 89.3% | 60.6 µg/mL (≈ 200 µM) | 96.4% | 32.4 µg/mL (≈ 107 µM) | 18 mm | –
3 | O=C1Nc2ccccc2C12CC(c1cn(S(=O)(=O)c3ccc(Br)cc3)c3ccccc13)=NN2 (stereo not drawn) [Compound 13g, 5’-(N-(4-Bromo-benzenesulfonyl)-1H-indol-3-yl)-2’,4’-dihydrospiro(indoline-3,3’-pyrazol)-2-one] | 190 to 192 °C | – | – | 13% | 25.9 ± 1.85% | 44 ± 1.46% | 49.2 ± 1.77% | 53.7 ± 1.81% | – | 92.4% | 35.3 µg/mL (≈ 67.7 µM) | 81.9% | 72.2 µg/mL (≈ 138 µM) | 91.6% | 43 µg/mL (≈ 82.5 µM) | – | –

Continued, in another order:

Row | melting point | SMILES | zone of inhibition at 20 µg/disc [1] | zone of inhibition at 20 µg/disc [2] | inhibition at 100 µg/mL [3] | inhibition [4, 11] | inhibition [4, 12] | inhibition [4, 13] | inhibition [4, 14] | zone of inhibition at 20 µg/disc [5] | inhibition at 100 µg/mL [6] | IC50 [6] | inhibition at 100 µg/mL [7] | IC50 [7] | inhibition at 100 µg/mL [8] | IC50 [8] | zone of inhibition at 20 µg/disc [9] | zone of inhibition at 20 µg/disc [10]
4 | 143 to 145 °C | CCn1cc(C2=NNC3(C2)C(=O)Nc2ccccc23)c2ccccc21 (stereo not drawn) [Compound 13b, 5’-(N-Ethyl-1H-indol-3-yl)-2’,4’-dihydrospiro(indoline-3,3’-pyrazol)-2-one] | – | – | 10.4% | 43.5 ± 1.98% | 47 ± 1.81% | 56.3 ± 1.29% | 65.5 ± 1.55% | 18 mm | 94.5% | 21.3 µg/mL (≈ 64.5 µM) | 81.4% | 48 µg/mL (≈ 145 µM) | 95.4% | 24 µg/mL (≈ 72.6 µM) | 18 mm | –
5 | 137 to 139 °C | CCOc1cc2occc2c(OC)c1C1=NNC2(C1)C(=O)Nc1ccccc12 (stereo not drawn) [Compound 11c, 5’-(6-Ethoxy-4-methoxy-benzofuran-5-yl)-2’,4’-dihydrospiro(indoline-3,3’-pyrazol)-2-one] | 10 mm | – | 45.2% | 40.6 ± 1.28% | 40.6 ± 1.81% | 40.6 ± 1.67% | 40.6 ± 1.35% | 25 mm | 30.2% | – | – | – | 0% | – | 25 mm | 10 mm
6 | 219 to 221 °C | O=C(c1ccccc1Cl)n1cc(C2=NNC3(C2)C(=O)Nc2ccccc23)c2ccccc21 (stereo not drawn) [Compound 13e, 5’-(N-(2-Chloro-benzoyl)-1H-indol-3-yl)-2’,4’-dihydrospiro(indoline-3,3’-pyrazol)-2-one] | – | – | 10.3% | 9.1 ± 1.38% | 26.1 ± 1.26% | 36.7 ± 1.62% | 48.1 ± 1.82% | – | 90.4% | 35.4 µg/mL (≈ 80.3 µM) | 79.8% | 67.1 µg/mL (≈ 152 µM) | 96.4% | 31.9 µg/mL (≈ 72.4 µM) | – | –
7 | 307 to 309 °C | O=C(c1ccccc1)n1cc(C2=NNC3(C2)C(=O)Nc2ccccc23)c2ccccc21 (stereo not drawn) [Compound 13d, 5’-(N-Benzoyl-1H-indol-3-yl)-2’,4’-dihydrospiro(indoline-3,3’-pyrazol)-2-one] | – | – | 7% | 19.3 ± 1.24% | 31.3 ± 1.81% | 25.9 ± 1.24% | 39.7 ± 1.99% | – | 94.6% | 26.9 µg/mL (≈ 66.2 µM) | 82.7% | 60.9 µg/mL (≈ 150 µM) | 96.4% | 25.4 µg/mL (≈ 62.5 µM) | – | –
8 | 197 to 199 °C | O=C1Nc2ccccc2C12CC(c1cn(S(=O)(=O)c3ccc(Cl)cc3)c3ccccc13)=NN2 (stereo not drawn) [Compound 13h, 5’-(N-(4-Chloro-benzensulfonyl)-1H-indol-3-yl)-2’,4’-dihydrospiro(indoline-3,3’-pyrazol)-2-one] | – | – | 14.1% | 15.2 ± 1.98% | 16.3 ± 1.96% | 20.6 ± 1.48% | 35.7 ± 1.91% | – | 91.3% | 20.5 µg/mL (≈ 43 µM) | 79.5% | 19.2 µg/mL (≈ 40.3 µM) | 93.4% | 5.8 µg/mL (≈ 12.2 µM) | – | –
